Laboratory results: US20060004055A1, “Derivative of 5-(4-bromophenyl)-1-(2,4-dichlorophenyl)-4-ethyl-N-(piperidine-1-yl)-1H-pyrazole-3-carboxamide, the preparation and therapeutic use thereof” (Sanofi-Aventis, priority 2002, published 2006)

Experiments:
[1] = biological target: cannabinoid CB1 receptors; assay: in vitro affinity for cannabinoid CB1 receptors (Rinaldi-Carmona et al., FEBS Letters 1994); assay type: binding; conditions: conditions of Rinaldi-Carmona et al., FEBS Letters, 1994, 350, 240-244
Sequence of cannabinoid CB1 receptors (P21554 whole entry): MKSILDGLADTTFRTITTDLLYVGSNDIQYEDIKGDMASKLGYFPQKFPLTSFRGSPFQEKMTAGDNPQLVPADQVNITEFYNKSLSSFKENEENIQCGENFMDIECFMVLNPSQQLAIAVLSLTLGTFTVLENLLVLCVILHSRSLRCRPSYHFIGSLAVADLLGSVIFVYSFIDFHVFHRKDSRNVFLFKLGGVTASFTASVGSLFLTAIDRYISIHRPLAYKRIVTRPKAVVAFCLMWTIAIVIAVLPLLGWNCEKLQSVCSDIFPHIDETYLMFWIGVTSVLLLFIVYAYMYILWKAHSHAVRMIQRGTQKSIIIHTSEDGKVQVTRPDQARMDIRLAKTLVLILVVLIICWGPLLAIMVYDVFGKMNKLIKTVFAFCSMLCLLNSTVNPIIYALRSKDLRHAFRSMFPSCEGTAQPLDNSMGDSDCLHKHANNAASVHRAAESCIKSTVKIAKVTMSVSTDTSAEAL

- IC50 [1]: 32 nM
SMILES: CCc1c(C(=O)NN2CCC(O)CC2)nn(-c2ccc(Cl)cc2Cl)c1-c1ccc(Br)cc1 [compound of formula (I), 5-(4-Bromophenyl)-1-(2,4-dichlorophenyl)-4-ethyl-N-(hydroxypiperidin-1-yl)-1H-pyrazole-3-carboxamide]
- toxicity (toxicity): compatible with its use as a medicinal product
